# Columns and labels:
# Conditions in all cases: stereoisomer not certain
# [1] = RP, 150 × 2.1 mm, 2.6 µm, 40 °C, 0.35 mL/min, estimated dead time 0.94 min; A: water + 0.1% formic acid, pH 3; B: acetonitrile + 0.1% formic acid, pH 3; gradient (min/%B) 0/0 1/5 7/45 8.5/80 10.5/80 11/5 12/5
# [2] = RP, 150 × 2.1 mm, 2.6 µm, 40 °C, 0.35 mL/min, estimated dead time 0.94 min; A: water + 0.1% formic acid, pH 3; B: acetonitrile + 0.1% formic acid, pH 3; gradient (min/%B) 0/0 1/0 12.5/100 14/100 14.2/0 15/0
# [3] = RP, Phenomenex Synergi Hydro-RP, 250 × 2 mm, 4 µm, 25 °C, 0.2 mL/min, estimated dead time 2.5 min; A: water + 0.1% formic acid, pH 3; B: acetonitrile + 0.1% formic acid, pH 3; gradient (min/%B) 0/0.5 7/0.5 12/12.5 25/16.3 47/35 48/65 50/65 50.1/0.5
# [4] = RP, Waters ACQUITY UPLC BEH C18, 100 × 2.1 mm, 1.7 µm, 65 °C, 0.4 mL/min, estimated dead time 0.55 min; A: water + 0.1% formic acid, pH 3; B: 80% acetonitrile + 20% acetone + 0.1% formic acid, pH 3; gradient (min/%B) 0/0 5/100 5.5/0 6/0
# [5] = RP, Waters ACQUITY UPLC HSS T3, 100 × 2.1 mm, 50 °C; A: water + 0.1% formic acid, pH 3; B: 30% methanol + 70% acetonitrile + 0.1% formic acid, pH 3; gradient (min/%B) 0/5 1/8 2/15 3/40 4/70 4.5/100 5/100 6.4/100 6.6/5 6.8/5 7/5
# [6] = RP, Agilent ZORBAX Eclipse XDB-C18, 100 × 2.1 mm, 1.8 µm, 50 °C, 0.4 mL/min, estimated dead time 0.55 min; A: water + 0.1% formic acid, pH 3; B: methanol + 0.1% formic acid, pH 3; gradient (min/%B) 0/2 10/100 14.5/100 14.51/2 16.5/2
# [7] = RP, Waters ACQUITY UPLC HSS T3, 100 × 2.1 mm, 1.8 µm, 30 °C, 0.4 mL/min, estimated dead time 0.55 min; A: water + 0.1% formic acid, pH 3; B: acetonitrile + 0.1% formic acid, pH 3; gradient (min/%B) 0/0 2/0 15/100 22/100 22.1/0 26/0
# [8] = RP, Agilent ZORBAX RRHD Eclipse Plus C18, 50 × 2.1 mm, 1.8 µm, 30 °C, 0.4 mL/min, estimated dead time 0.28 min; A: water + 0.1% formic acid, pH 3; B: acetonitrile + 0.1% formic acid, pH 3; gradient (min/%B) 0/1 5/10 8/25 9.1/99 10/99 12/99
# [9] = RP, Agilent ZORBAX RRHD Eclipse Plus C18, 50 × 2.1 mm, 1.8 µm, 30 °C, 0.4 mL/min, estimated dead time 0.28 min; A: water + 0.1% formic acid, pH 3; B: acetonitrile + 0.1% formic acid, pH 3; gradient (min/%B) 0/1 5/10 8/25 9.1/99 10/99 12/1
SMILES,LC retention time [1] [min],LC retention time [2] [min],LC retention time [3] [min],further results
NCC(=O)c1ccccc1 [2 aminoacetophenone],6.86,6.84,–,–
O=C(O)c1cc2ccccc2[nH]1 [2-Indolecarboxylic acid],6.07,6.06,–,–
COc1ccccc1C=CC(=O)O [2-Methoxycinnamic acid],–,–,50,–
O=C(O)C(O)CCc1ccccc1 (configuration not stated) [2-hydroxy-4-phenylbutyric acid],6.6,6.54,–,–
"COc1cc(CCC(=O)O)cc(OC)c1OC [3-(3,4,5-Trimethoxyphenyl)propionic acid]",6.73,6.58,–,–
Nc1c(O)cccc1C(=O)O [3-Hydroxyanthranilic acid],2.89,3.21,–,–
NC(=O)Cc1c[nH]c2ccccc12 [3-Indoleacetamide],5.15,5.28,–,–
O=C(O)CCCc1c[nH]c2ccccc12 [3-Indolebutyric acid],7.97,7.63,–,–
O=C(O)C(O)Cc1ccccc1 (configuration not stated) [3-Phenyllactic acid],–,–,27.2,–
COc1cccc(C=CC(=O)O)c1 [3-methoxycinnamic acid],–,–,49.1,–
O=C(O)CCc1ccccc1 [3-phenylpropionic acid],–,–,44.5,LC retention time [4]: 2.78 min
O=c1cc(O)c2ccccc2o1 [4-hydroxycoumarin],6.59,6.51,–,–
COc1ccc(C=CC(=O)O)cc1 [4-methoxycinnamic acid],–,–,48,–
Cc1cc(=O)oc2cc(O)ccc12 [4-methylumbelliferone],6.46,6.41,–,–
COc1ccc2[nH]cc(CC(=O)O)c2c1 [5-Methoxyindoleacetic acid],6.29,6.26,–,–
COc1cc2c(CCNC(C)=O)c[nH]c2cc1O [6-Hydroxymelatonin],5.05,5.14,–,–
CC(C=CC1(O)C(C)=CC(=O)CC1(C)C)=CC(=O)O (configuration not stated) [Abscisic acid],7.12,6.9,–,–
Cn1c(=O)c2c(ncn2C)n(C)c1=O [Caffeine],–,–,21.3,LC retention time [5]: 3.1 min; LC retention time [6]: 3.67 min; LC retention time [4]: 1.67 min; LC retention time [7]: 8.11 min
O=C(O)C1OC(Oc2ccccc2O)C(O)C(O)C1O (configuration not stated) [Catechol-O-1-glucuronide],–,–,–,LC retention time [5]: 2.65 min; LC retention time [8]: 3.09 min; LC retention time [9]: 4.38 min

SMILES,LC retention time [1] [min],LC retention time [2] [min],LC retention time [3] [min],further results
O=C(O)CC(O)(CC(=O)O)C(=O)O [Citric acid],–,–,6.32,LC retention time [5]: 0.67 min; LC retention time [6]: 1.09 min
O=c1ccc2cc(OC3OC(CO)C(O)C(O)C3O)c(O)cc2o1 (configuration not stated) [Esculin],3.94,4.11,–,–
Nc1nc2ncc(CNc3ccc(C(=O)NC(CCC(=O)O)C(=O)O)cc3)nc2c(=O)[nH]1 (configuration not stated) [Folic acid],–,–,19,LC retention time [6]: 3.46 min
CS(=O)CCCC(=NOS(=O)(=O)O)SC1OC(CO)C(O)C(O)C1O (configuration not stated) [Glucoiberin],–,–,4.44,–
C=CCCC(=NOS(=O)(=O)O)SC1OC(CO)C(O)C(O)C1O (configuration not stated) [Gluconapin],–,–,12.7,–
O=S(=O)(O)ON=C(CCc1ccccc1)SC1OC(CO)C(O)C(O)C1O (configuration not stated) [Gluconasturtiin],–,–,19.3,–
CS(=O)CCCCC(=NOS(=O)(=O)O)SC1OC(CO)C(O)C(O)C1O (configuration not stated) [Glucoraphanin],–,–,6.23,–
COc1cc(CCC(=O)O)ccc1O [Hydroferulic acid],–,–,28.5,LC retention time [7]: 9.38 min
O=c1c(OC2OC(CO)C(O)C(O)C2O)c(-c2ccc(O)cc2)oc2cc(O)cc(O)c12 [Kaempferol 3-O-D-galactoside],–,–,37.2,–
COc1ccc2[nH]cc(CCNC(C)=O)c2c1 [Melatonin],6.35,6.29,–,–
COC(=O)Cc1c[nH]c2ccccc12 [Methyl indole acetate],8.34,8.01,–,–
CC(=O)NCCc1c[nH]c2ccc(O)cc12 [N-acetylserotonin],4.5,4.69,–,–
O=C1CC(c2ccc(O)cc2)Oc2cc(OC3OC(CO)C(O)C(O)C3O)cc(O)c21 (configuration not stated) [Naringenin 7-O-glucoside],6.17,6.02,–,–
O=C(O)c1cccnc1 [Niacin],–,–,5.51,–
O=c1cc(-c2ccc(O)c(O)c2)oc2c(C3OC(CO)C(O)C(O)C3O)c(O)cc(O)c12 (configuration not stated) [Orientin],5.29,5.3,–,–
Cn1c(=O)[nH]c2ncn(C)c2c1=O [Paraxanthine],–,–,–,LC retention time [5]: 2.56 min; LC retention time [6]: 2.93 min; LC retention time [4]: 1.48 min; LC retention time [7]: 7.53 min
O=C(O)CC(=O)OCC1OC(Oc2c(-c3ccc(O)c(O)c3)oc3cc(O)cc(O)c3c2=O)C(O)C(O)C1O (configuration not stated) [Quercetin 3-O-malonylglucoside],–,–,37,–
NCCc1c[nH]c2ccc(O)cc12 [Serotonin],1.45,1.54,–,–

# Second part, led by results:
LC retention time [1] [min],LC retention time [2] [min],LC retention time [3] [min],SMILES,further results
–,–,20.6,CC1OC(OCC2OC(Oc3c(-c4ccc(O)c(O)c4)oc4cc(OC5OC(CO)C(O)C(O)C5O)cc(O)c4c3=O)C(O)C(O)C2O)C(O)C(O)C1O (configuration not stated) [Quercetin 3-O-rutinoside-7-O-glucoside],–
6.25,–,–,O=c1c(O)c(-c2ccc(OC3OC(CO)C(O)C(O)C3O)c(O)c2)oc2cc(O)cc(O)c12 (configuration not stated) [Quercetin 4-glucoside],–
–,–,38.8,CC(=O)OCC1OC(Oc2c(-c3ccc(O)c(O)c3)oc3cc(O)cc(O)c3c2=O)C(O)C(O)C1O (configuration not stated) [Quercetin-3-O-(6-acetylglucoside)],–
5.74,5.66,–,O=c1c(OC2OC(CO)C(O)C(O)C2O)c(-c2ccc(O)c(O)c2)oc2cc(O)cc(O)c12 (configuration not stated) [Quercetin-3-O-galactoside],–
–,–,3.21,O=C(O)C1(O)CC(O)C(O)C(O)C1 (configuration not stated) [Quinic acid],LC retention time [5]: 0.58 min; LC retention time [7]: 1.05 min
–,–,31.8,CC1OC(OCC2OC(Oc3c(-c4ccc(O)cc4)oc4cc(OC5OC(C)C(O)C(O)C5O)cc(O)c4c3=O)C(O)C(O)C2O)C(O)C(O)C1O (configuration not stated) [Robinin],–
–,–,5.52,C=CCC(=NOS(=O)(=O)O)SC1OC(CO)C(O)C(O)C1O (configuration not stated) [Sinigrin],–
6.17,6,–,COc1cc(-c2oc3cc(O)cc(O)c3c(=O)c2OC2OC(CO)C(O)C(O)C2O)cc(OC)c1O (configuration not stated) [Syringetin-3-glucoside],–
–,–,47,O=C(C=Cc1ccc(O)cc1)OCC1OC(Oc2c(-c3ccc(O)cc3)oc3cc(O)cc(O)c3c2=O)C(O)C(O)C1O (configuration not stated) [Tiliroside],–
4.57,4.73,–,O=S(=O)(O)c1[nH]c2ccccc2c1CCO [Tryptophol-2-sulfonate],–
6.48,6.45,–,OCCc1c[nH]c2ccccc12 [Tryptophol],–
7.69,5.77,–,O=c1ccc2ccc(O)cc2o1 [Umbelliferone],LC retention time [7]: 9.65 min
–,–,7.67,O=c1[nH]c(=O)c2[nH]c(=O)[nH]c2[nH]1 [Uric acid],–
–,–,32.5,COc1ccc(CC(=O)O)cc1OC [homoveratric acid],–
4.06,4.3,–,O=C(O)c1cc(=O)c2ccccc2[nH]1 [kynurenic acid],–
–,–,40.2,COc1cccc(C(=O)O)c1 [m-Anisic acid],–
–,–,31.4,COc1ccccc1C(=O)O [o-Anisic acid],–
–,–,27.4,O=C(O)CNCc1ccccc1O [salicylglycine],–
